Test: Precipitate formation from sodium deoxycholate solutions after 1 week of storage (visual inspection)
Format: physicochemical
Conditions: 1 week storage
Protocol: Solutions of sodium deoxycholate at different concentration were evaluated for precipitate formation after 1 week of storage. […] By visual inspection, the amount of precipitation can be rated as tabulated below.

With `C[C@H](CCC(=O)[O-])[C@H]1CCC2C3CC[C@@H]4C[C@H](O)CC[C@]4(C)C3C[C@H](O)[C@@]21C.[Na+]` (stereo partly drawn) [Sodium Deoxycholate, sodium (4R)-4-((3R,5R,10S,12S,13R,17R)-3,12-dihydroxy-10,13-dimethylhexadecahydro-1H-cyclopenta[a]phenanthren-17-yl)pentanoate] the “Precipitation, Comment” value (0.5% w/v) was “Significant amounts of precipitate visible to the naked eye” and the “Precipitation, Comment” value (1.0% w/v) was “Significant amounts of precipitate visible to the naked eye”.

Reference: patent US20220072011A1, “TREATMENTS OF ACCUMULATED FAT WITH DEOXYCHOLIC ACID AND SALTS THEREOF” (Allergan Sales, LLC, priority 2015, published 2022)
